Data from patent publication US20070043093A1, “Glucagon-like peptide-1 receptor agonists, the preparation and the use of the same” (priority 2003, published 2007).

Assays:
GLP-1R [1] = target: T1, GLP-1R (Rattus norvegicus, UniProt P32301); test: Determination of the concentration of intracellular cAMP; type: cell-based, human
T1 construct: stably transfected with the expression vector of GLP-1R gene
T1 sequence (P32301 22-463): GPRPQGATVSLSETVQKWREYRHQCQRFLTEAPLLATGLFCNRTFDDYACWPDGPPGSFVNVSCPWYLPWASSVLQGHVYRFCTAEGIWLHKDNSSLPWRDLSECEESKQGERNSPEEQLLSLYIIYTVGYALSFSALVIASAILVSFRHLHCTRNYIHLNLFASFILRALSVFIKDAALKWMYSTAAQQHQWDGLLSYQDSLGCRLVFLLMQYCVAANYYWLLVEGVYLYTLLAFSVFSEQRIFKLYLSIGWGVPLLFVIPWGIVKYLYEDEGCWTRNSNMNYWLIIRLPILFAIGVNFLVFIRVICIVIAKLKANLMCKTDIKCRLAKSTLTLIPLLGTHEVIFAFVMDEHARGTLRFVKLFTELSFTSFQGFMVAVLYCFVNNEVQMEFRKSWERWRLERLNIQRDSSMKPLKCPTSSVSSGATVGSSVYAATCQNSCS
Excerpt: Since the determination of the concentration of intracellular cAMP indirectly by detecting the expression of the report gene is an indirect process, the functional re-screen is directly performed with the cAMP-detecting kit in order to make sure that the compound can surely increase the concentration of intracellular cAMP.
HEK 293/GLP1R+Luc strain which stably express GLP-1R and luciferase (National new medicaments screening center)
HEK 293 cells are inoculated into 96-well plate in 20000 cells/100 μl/well, are cultured at 37[…] overnight. The compound 2f is diluted to 1.00E-03M, 1.00E-04M, 1.00E-05M, 1.00E-06M and 1.00E-07M with dimethyl sulphoxide, following by being inoculated into the above 96-well plate in […] and being cultured at 37 °C with 5% of CO2 for 1 hour. The concentration of intracellular cAMP is detected according to the specification of cAMP-Screen Direct TM system kit.

GLP-1R [2] = target: T1, GLP-1R; test: Ligand-binding activity, competition with 125I-labelled GLP-1 on HEK 293/GLP1R+Luc cells; design: species or system human; settings: for EC50: competition with 125I-labelled GLP-1 (40 pM), 25 °C, 4 hours; for affinity to GLP-1R (in words): receptor-binding experiment, testing concentration range 0.1 nM to 100,000 nM
Experimental: In order to determine the binding activity of the compound to the ligand, the cells which highly express GLP-1R are prepared, GLP-1 labelled with ^125I is used as the ligand, while adding into the candidate compound. When the candidate compound binds the ^125I-labelled GLP-1 competitively, the isotope labels on the cell membrane reduce. Accordingly, the affinity of the candidate compound to the ligand can be evaluated (J Mol Endocrinol. 2000 Vol.25:321-35; J Biomol Screen, 2000 Vol. 5:377-84).
20 mM of tris-HCl (pH 7.4) (Shanghai Shenggong biological engineering technology LTD), 100 mM of NaCl (Shanghai Chemical agents Cooperation), 15 mM of NaF (Shanghai Chemical agents Cooperation), 2 mM of deoxypyridoxine (Sigma Cooperation), 0.2 mM of phenylmethylsulfonyl fluoride (Sigma Cooperation), aprotinin (Shanghai Chemical agents Cooperation) (1 μg/ml), and leupeptin (Shanghai Chemical agents Cooperation) (1 μg/ml).
The candidate compound is diluted with dimethyl sulphoxide at the concentration gradient of 0.1 nM, 1 nM, 10 nM, 100 nM, 1000 nM, 10,000 nM, and 100,000 nM.
10^5 HEK 293/GLP1R+Luc cells in the logarithmic growth phase are incubated together with the ^125I-labelled GLP-1 positive peptide (the final concentration of 40 pM) in 200 μl of the testing buffer solution at 25 °C for 4 hours, while adding into the non-labeled positive peptide or the candidate compound. The cells are collected with the cell collector, following by washing three times with the washing solution. The scintillation liquid is added into them, and each well is counted with Microbata counter.

GLP-1R [3] = target: T1, GLP-1R; test: Expression of the luciferase report gene in HEK 293/GLP1R+Luc cells; type: cell-based, human; settings: for EC50: luciferase report gene, HEK 293/GLP1R+Luc cells, 6 hours
Excerpt: Upon that GLP-1R binds to GLP-1 or agonists, its Gasubunit is activated to stimulate the adenylate cyclase, which makes the increase in the concentration of intracellular cAMP. Since the promoter region of the proinsulin gene has the cAMP response element, upon binding of cAMP to this response element, the transcription of the proinsulin gene is activated, so as to increase the sensitivity of -- islet cells to glucose, and improve the expression and secretion of insulin (Diabetes, 2000, vol.49:1156-1164). The screening model employs the human embryonal nephric cell strain which is stably transfected with the expression vector of GLP-1R gene and the expression vector of luciferase report gene under the regulation of cAMP response element, to detect its response to the candidate compound (Cell Biology, 1992, Vol.89: 8641-8645; Proc. Natl. Acad. Sci. U.S.A. 1987, Vol.84: 3434-3438). When screening the candidate compounds, the compound which may induce the luciferase report gene to express have the activity of activating GLP-1.
Cell strain: HEK 293/GLP1R+Luc strain which stably express GLP-1R and luciferase (National New Medicaments Screening Center)
HEK 293/GLP1R+Luc cell in 20000 cells/100 μl/well are inoculated into 96-well plate, are cultured at 37[…] overnight with DMEM culture medium containing 10% of fetal calf serum and 500 μg/mL of G418. The candidate compounds wang516-2, wang502, and wang504 are respectively diluted to 2 mM, 1 mM, 0.3 mM, 0.1 mM, 0.03 mM, […], and 0.003 mM, and the other candidate compounds are diluted gradually from 30 mM for 8 times by a ratio of 1:3 to get a concentration gradient (i.e., 30 mM, 10 mM, 3 mM, 1 mM, 0.3 mM, 0.1 mM, 0.03 mM, and 0.01 mM), following by being added into the above 96-well plate at 1 μl/well. Then, the cells are cultured at 37[…] in 5% of CO2for 6 hours. The activity of luciferase is detected according to the specification of Steady-glo™ luciferase analysis system kit, and counting is performed with Victor 2 counting machine. The positive control adopts 30 nM of standard GLP-1.

| EC50 (GLP-1R [2]) [µM] | EC50 (GLP-1R [3]) [µM] | SMILES | also measured |
| --- | --- | --- | --- |
| 31 | 13 | CCOc1cc(/C=C2/N=C(c3ccc(NC(C)=O)cc3)OC2=O)ccc1OC(=O)c1cccs1 [2f] | effect of high concentration on cells (cAMP decreasing trend) (GLP-1R [1]; 30 μM and 100 μM): cellulotoxic effect; concentration of cAMP with increase of compound concentration (GLP-1R [1]; 293/GLP-1R cells, 1 hour, FIG. 2): exponential increase; affinity to GLP-1R (in words) (GLP-1R [2]): better affinity |
| > 100 | 11.6 | COc1cc(/C=C2/N=C(c3ccc(NC(C)=O)cc3)OC2=O)ccc1OC(=O)c1cccs1 [wang462] | – |
| – | 6.73 | COc1cc(/C=C2/N=C(c3ccc(NC(=O)C4CC4)cc3)OC2=O)ccc1OC(=O)c1cccs1 [wang488] | – |
| – | 3.31 | COc1cc(/C=C2/N=C(c3ccc(NC(=O)C4CCC4)cc3)OC2=O)ccc1OC(=O)c1cccs1 [wang502] | – |
| – | 4.87 | COc1cc(/C=C2/N=C(c3ccc(NC(=O)C(C)(C)C)cc3)OC2=O)ccc1OC(=O)c1cccs1 [wang504] | – |
| 60 to 100 | 4.6 | COc1cc(/C=C2/N=C(c3ccc(NC(=O)OC(C)(C)C)cc3)OC2=O)ccc1OC(=O)c1cccs1 [wang520] | affinity to GLP-1R (in words) (GLP-1R [2]): little week; relative activity of luciferase (GLP-1R [3]; final concentration of 30 μM, luciferase activity induced by 30 nM standard GLP-1 regarded as 100%, FIG. 1): 94% |

Continued, compound first:

| SMILES | EC50 (GLP-1R [2]) [µM] | EC50 (GLP-1R [3]) [µM] | also measured |
| --- | --- | --- | --- |
| COc1cc(C=C2N=C(c3ccccc3)OC2=O)ccc1OC(=O)c1cccs1 [wang405] | > 100 | – | – |
| COc1cc(/C=C2/N=C(c3ccc(N)cc3)OC2=O)ccc1OC(=O)c1cccs1 [wang420] | > 100 | – | – |
| COc1cc(C=C2N=C(c3ccc([N+](=O)[O-])cc3)OC2=O)ccc1OC(=O)c1cccs1 [wang450] | > 100 | – | – |
| COc1cc(C=C2N=C(c3ccc(NC(=O)C4CCCC4)cc3)OC2=O)ccc1OC(=O)c1cccs1 [wang516] | 40 to 80 | 6.85 | affinity to GLP-1R (in words) (GLP-1R [2]): little week |
| COc1cc(/C=C2/N=C(c3ccc(NC(=O)c4ccccc4)cc3)OC2=O)ccc1OC(=O)c1cccs1 [wang524] | > 100 | 46.5 | – |
| COc1cc(/C=C2/N=C(c3ccc(NC(=O)C(O)c4ccccc4)cc3)OC2=O)ccc1OC(=O)c1cccs1 (stereo not shown) [wang554] | – | 5.24 | – |
| COc1cc(C=C2N=C(c3ccc(NC(=O)Nc4ccc(C5=NC(=Cc6ccc(OC(=O)c7cccs7)c(OC)c6)C(=O)O5)cc4)cc3)OC2=O)ccc1OC(=O)c1cccs1 [wang866] | > 100 | 54.4 | – |
